Measurements as given in patent US8859534B2, “2-carboxamide-7-piperazinyl-benzofuran derivatives” (AstraZeneca AB, priority 2009, dated 2014).
pKi: −log10 of the molar value.

Key:
[1] = target: 5-HT1B receptor (Homo sapiens (Human), UniProt P28222); assay: 5-HT1B receptor competition binding assay (SPA, [3H]-GR125743); details: membranes of CHO cells expressing 5-HT1B receptors; radioligand [3H]-GR125743 0.15-0.2 nM
Excerpt: (§1) Assays that were used to measure affinity of the compounds of the present invention for 5-HT1A and 5-HT1B receptors are described in J. Recept Signal Transduct. Res. 22:483-495 (2002) and Naunyn-Schmiedeberg's Arch Pharmacol. 356:328-334 (1997) and incorporated by reference herein. These assays were be used with some modifications:
(§2) For the binding assay stably transfected chinese hamster ovary (CHO) cell lines expressing 5-HT1A receptors or 5-HT1B receptors were harvested by centrifugation at 300×g for 10 min and resuspended in 10 mM Tris-HCl, 5 mM EDTA at pH 7.4. The cells were pooled, recentrifuged and resuspended before homogenisation using a Dounce homogeniser (“type B”). Cell membranes were centrifuged at 48 000×g for 10 min and then resuspended in harvesting buffer using an Ultra-Turrax T8 (IKA Labortechnik, Germany), aliquots were stored frozen in −70° C.
Frozen membrane preparations were thawed, homogenized with an Ultra-Turrax and mixed with SPA beads (YSI coated WGA, GE Healthcare/Amersham, Buckinghamshire, UK) in assay buffer containing 50 mM Tris-Base, 4 mM MgCl2, 4 mM CaCl2 (only 5-HT1B), 1 mM EDTA, and adjusted to pH 7.4 with HCl. The beads/membrane solution, final concentration 100 pM receptors for 5-HT1A, 300 pM receptors for 5-HT1B and 0.5 mg SPA beads/well, was pre-incubated in room temperature with stirring for 30-60 min. […] Five (log interval, 10 μM to 1 nM, final concentration) or ten serial dilutions (½-log interval, 10 μM to 0.32 nM, final concentration) of compounds were prepared in DMSO from 10 mM stock solutions. The binding assays were performed in 384-well plates in a final volume of 90 μL/well with the following additions: 9 μL binding buffer; 1 μL compound/DMSO/nonspecific; 20 μL radioligand; and 60 μL beads/membrane mixture. Non-specific binding was defined by using 10 μM WAY100635 for 5-HT1A and 10 μM Methiothepin for 5-HT1B. The assay plates were incubated for 4 hours where after the plates are counted in a Wallac 1450 Microbeta Trilux counter (PerkinElmer LifeScience, US) or similar. Data from the experiments were analyzed using a four parameter logistic equation as follows: Y=Bottom+(Top-Bottom)/1+10^(LogEC50-X)nH.
• Jerning E., Rosqvist S., Mohell N. (2002) NAD-299 antagonises 5-HT-stimulated and Spiperone-inhibited [^35S]GTPγS binding in cloned 5-HT1A receptors. J Recept Signal Transduct Res 22:483-495. • Doménech T., Beleta J., Palacios J. M. (1997) Characterization of human serotonin 1D and 1B receptors using [^3H]-GR-125743, a novel radiolabelled serotonin 5HT1D/1B receptor antagonist. Naunyn-Schmiedeberg's Arch Pharmacol 356:328-334.

[2] = target: 5-HT1A receptor (Homo sapiens (Human), UniProt P08908); assay: 5-HT1A receptor competition binding assay (SPA, [3H]-8-OH-DPAT); details: membranes of CHO cells expressing 5-HT1A receptors; radioligand [3H]-8-OH-DPAT 0.15-0.2 nM
Chain of 5-HT1A receptor (P08908 whole entry): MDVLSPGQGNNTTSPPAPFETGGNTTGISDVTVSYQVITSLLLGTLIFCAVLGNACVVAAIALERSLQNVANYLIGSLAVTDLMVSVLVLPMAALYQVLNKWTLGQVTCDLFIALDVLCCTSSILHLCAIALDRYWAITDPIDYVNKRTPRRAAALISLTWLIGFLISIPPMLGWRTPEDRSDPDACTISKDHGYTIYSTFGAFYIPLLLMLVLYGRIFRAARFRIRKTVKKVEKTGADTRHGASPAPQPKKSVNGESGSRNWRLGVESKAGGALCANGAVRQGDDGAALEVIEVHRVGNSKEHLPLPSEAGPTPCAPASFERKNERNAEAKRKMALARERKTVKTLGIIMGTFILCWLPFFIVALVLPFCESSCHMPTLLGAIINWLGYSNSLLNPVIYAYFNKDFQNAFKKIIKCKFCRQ
Excerpt: as §1, §2
Frozen membrane preparations were thawed, homogenized with an Ultra-Turrax and mixed with SPA beads (YSI coated WGA, GE Healthcare/Amersham, Buckinghamshire, UK) in assay buffer containing 50 mM Tris-Base, 4 mM MgCl2, 4 mM CaCl2 (only 5-HT1B), 1 mM EDTA, and adjusted to pH 7.4 with HCl. […] The binding assays were performed in 384-well plates in a final volume of 90 μL/well with the following additions: 9 μL binding buffer; 1 μL compound/DMSO/nonspecific; 20 μL radioligand; and 60 μL beads/membrane mixture. Non-specific binding was defined by using 10 μM WAY100635 for 5-HT1A and 10 μM Methiothepin for 5-HT1B. The assay plates were incubated for 4 hours where after the plates are counted in a Wallac 1450 Microbeta Trilux counter (PerkinElmer LifeScience, US) or similar. Data from the experiments were analyzed using a four parameter logistic equation as follows: Y=Bottom+(Top-Bottom)/1+10^(LogEC50-X)nH.

Chain of 5-HT1B receptor (P28222 whole entry): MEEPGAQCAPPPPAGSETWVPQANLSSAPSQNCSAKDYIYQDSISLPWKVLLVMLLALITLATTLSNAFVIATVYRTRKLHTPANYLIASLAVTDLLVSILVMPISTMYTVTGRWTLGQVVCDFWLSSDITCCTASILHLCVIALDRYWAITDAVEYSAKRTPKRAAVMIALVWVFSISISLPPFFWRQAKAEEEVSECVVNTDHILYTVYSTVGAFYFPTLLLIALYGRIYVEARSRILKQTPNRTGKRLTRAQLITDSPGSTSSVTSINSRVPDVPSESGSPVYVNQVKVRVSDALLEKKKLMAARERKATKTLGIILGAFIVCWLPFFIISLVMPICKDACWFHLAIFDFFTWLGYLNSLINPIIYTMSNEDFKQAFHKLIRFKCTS

SMILES | pKi [1] | pKi [2]
O=C(NCc1cccc(O)c1)c1cc2cccc(N3CCN(CCc4ccccn4)CC3)c2o1 [Example 37, N-(3-Hydroxybenzyl)-7-(4-(2-(pyridin-2-yl)ethyl)piperazin-1-yl)benzofuran-2-carboxamide] | 8.46 | 9.64
Cc1ccc(CCN2CCN(c3cccc4cc(C(=O)N(C)C)oc34)CC2)nc1 [Example 40, N,N-dimethyl-7-(4-(2-(5-methylpyridin-2-yl)ethyl)piperazin-1-yl)benzofuran-2-carboxamide] | 8.89 | 9.85
CN(C)C(=O)c1cc2cccc(N3CCN(CCc4cccc(C(F)(F)F)n4)CC3)c2o1 [Example 42, N,N-dimethyl-7-(4-(2-(6-(trifluoromethyl)pyridin-2-yl)ethyl)piperazin-1-yl)benzofuran-2-carboxamide] | 8.15 | 9.19
CC(=O)c1ccc(CCN2CCN(c3cccc4cc(C(=O)N(C)C)oc34)CC2)nc1 [Example 43, 7-(4-(2-(5-Acetylpyridin-2-yl)ethyl)piperazin-1-yl)-N,N-dimethylbenzofuran-2-carboxamide] | 8.70 | 9.48
CC(=O)Nc1ccc(CCN2CCN(c3cccc4cc(C(=O)N(C)C)oc34)CC2)nc1 [Example 44, 7-(4-(2-(5-Acetamidopyridin-2-yl)ethyl)piperazin-1-yl)-N,N-dimethylbenzofuran-2-carboxamide] | 7.70 | 8.43
CN(C)C(=O)c1cc2cc(F)cc(N3CCN(CCc4ccccn4)CC3)c2o1 [Example 50, 5-Fluoro-N,N-dimethyl-7-(4-(2-(pyridin-2-yl)ethyl)piperazin-1-yl)benzofuran-2-carboxamide] | 8.09 | 9.37
CN(C)C(=O)c1cc2c(Br)ccc(N3CCN(CCc4ccccn4)CC3)c2o1 [Example 53, 4-Bromo-N,N-dimethyl-7-(4-(2-(pyridin-2-yl)ethyl)piperazin-1-yl)benzofuran-2-carboxamide] | 7.96 | 9.46

More lines, in order of rising pKi [1], values ahead:

pKi [1] | pKi [2] | SMILES
6.85 | 8.55 | COc1cc(N2CCN(CCc3ccccn3)CC2)c2oc(C(=O)N(C)C)cc2c1 [Example 52, 5-Methoxy-N,N-dimethyl-7-(4-(2-(pyridin-2-yl)ethyl)piperazin-1-yl)benzofuran-2-carboxamide]
7.72 | 9.66 | CN(C)C(=O)c1cc2cccc(N3CCN(CCc4ccc(F)cn4)CC3)c2o1 [Example 47, 7-(4-(2-(5-Fluoropyridin-2-yl)ethyl)piperazin-1-yl)-N,N-dimethylbenzofuran-2-carboxamide]
8.30 | 9.64 | CC(=O)N1CCc2cc(CCN3CCN(c4cc(F)cc5cc(C(=O)N(C)C)oc45)CC3)ccc21 [Example 51, 7-(4-(2-(1-Acetylindolin-5-yl)ethyl)piperazin-1-yl)-5-fluoro-N,N-dimethylbenzofuran-2-carboxamide]
8.80 | 10.19 | CC(=O)N1CCc2cc(CCN3CCN(c4cccc5cc(C(=O)N(C)C)oc45)CC3)ccc21 [Example 38, 7-(4-(2-(1-Acetylindolin-5-yl)ethyl)piperazin-1-yl)-N,N-dimethylbenzofuran-2-carboxamide]
8.85 | 8.89 | COc1cccc(CCN2CCN(c3cccc4cc(C(=O)N(C)C)oc34)CC2)n1 [Example 46, 7-(4-(2-(6-Methoxypyridin-2-yl)ethyl)piperazin-1-yl)-N,N-dimethylbenzofuran-2-carboxamide]
9.34 | 8.72 | O=C(c1cc2cccc(N3CCN(CCc4ccccn4)CC3)c2o1)N1CC(Oc2cccnc2)C1 [Example 36, (7-(4-(2-(Pyridin-2-yl)ethyl)piperazin-1-yl)benzofuran-2-yl)(3-(pyridin-3-yloxy)azetidin-1-yl)methanone]
